Results from US20210330611A1, “THERAPY FOR NEUROLOGICAL DISEASES/DISORDERS” (priority 2020, published 2021).
Where a name gives a salt, the structure may show the parent alone. Read-outs that look alike come from different tables or passages of the source.

What was measured:
[1] = tested on: fibrin-induced microglia activation; assay: Image-based assay of fibrin-induced microglia activation (HTS and dose response); format: cell-based, rat; details: for inhibition at 10 µM: Rattus norvegicus, Microglia, read-out: Fibrin % inhibition
[2] = tested on: LPS-induced microglia activation; assay: Image-based assay of LPS-induced microglia activation (HTS and dose response); format: cell-based, rat; details: for inhibition at 10 µM: Rattus norvegicus, Microglia, read-out: LPS % inhibition
[3] = tested on: fibrin- and LPS-induced microglia activation; assay: cells; format: cell-based, rat
primary rat microglia [4] = assay: Cell toxicity (dead cells, size <150 μm2) in LPS assay
primary rat microglia [5] = assay: Cell toxicity (dead cells, size <150 μm2) in coated fibrin (cFib) assay;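 note: share of dead cells sized under 150 µm2 at 10 µM in fibrin-stimulated microglia HTS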
[6] = primary microglia HTS, 10 μM, fibrin-stimulated, cell size >800 μm^2 as marker of activation
[7] = primary microglia HTS, 10 μM, LPS-stimulated, cell size >800 μm^2 as marker of activation
[8] = HTS of 1907 compounds, quadrant by fibrin and LPS inhibition
[9] = primary microglia HTS, 10 μM, LPS assay, cell size <150 μm^2 as marker of toxicity
[10] = primary microglia HTS, 10 μM, fibrin assay, cell size <150 μm^2 as marker of toxicity
[11] = primary microglia HTS, fibrin stimulation, increased cell size (>800 μm^2) as marker of activation
[12] = 48 h, primary microglia HTS, LPS stimulation, increased cell size (>800 μm^2) as marker of activation
[13] = quadrant by fibrin and LPS inhibition in HTS of 1907 compounds
[14] = primary microglia HTS, LPS stimulation, decreased size (<150 μm^2) as marker of toxicity
[15] = primary microglia HTS, fibrin stimulation, decreased size (<150 μm^2) as marker of toxicity
[16] = primary microglia HTS, LPS stimulation, increased cell size (>800 μm^2) as marker of activation
[17] = primary HTS, 10 μM, fibrin-stimulated primary microglia
[18] = primary HTS, 10 μM, LPS-stimulated primary microglia
[19] = primary HTS, 10 μM, LPS assay, dead cells size <150 μm2
[20] = primary HTS, 10 μM, fibrin assay, dead cells size <150 μm2
[21] = primary microglia HTS, fibrin stimulation, activation = cell size >800 μm2
[22] = 48 h, primary microglia HTS, LPS stimulation, activation = cell size >800 μm2
[23] = primary microglia HTS, LPS stimulation, toxicity = cell size <150 μm2
[24] = primary microglia HTS, fibrin stimulation, toxicity = cell size <150 μm2

## CCCCCC(C)N (centres unmarked) [Tuaminoheptane Sulfate]
[1]; [6]
  inhibition at 10 µM: -7%
[2]; [7]
  inhibition at 10 µM: 19%
[3]; [8]
  Quadrant (FIG. 5b): Q4
Primary rat microglia [4]; [9]
  LPS % cell toxicity: 0%
Primary rat microglia [5]; [10]
  Fibrin % cell toxicity: 1%

## COP(=O)(OC)C(O)C(Cl)(Cl)Cl (centres unmarked) [Metrifonate]
[1]; [11]
  inhibition at 10 µM: -34%
[2]; [12]
  inhibition at 10 µM: 8%
[3]; [13]
  Quadrant (FIG. 5b): Q4
Primary rat microglia [4]; [14]
  LPS % cell toxicity: 0%
Primary rat microglia [5]; [15]
  Fibrin % cell toxicity: 0%

## Nc1ccc(O)c(C(=O)O)c1 [Mesalazine]
[1]; [11]
  inhibition at 10 µM: 9%
[2]; [12]
  inhibition at 10 µM: 19%
[3]; [13]
  Quadrant (FIG. 5b): Q4
Primary rat microglia [4]; [14]
  LPS % cell toxicity: 0%
Primary rat microglia [5]; [15]
  Fibrin % cell toxicity: 1%

## Cc1c(N(C)CS(=O)(=O)[O-])c(=O)n(-c2ccccc2)n1C.[Na+] [Dipyrone]
[1]; [11]
  Fibrin % inhibition: 106%
[2]; [16]
  LPS % inhibition: 101%
[3]; [13]
  Quadrant (FIG. 5b): Q2
Primary rat microglia [4]; [14]
  LPS % cell toxicity: 36%
Primary rat microglia [5]; [15]
  Fibrin % cell toxicity: 26%

## O=C(O)[C@H]1/C(=C/CO)O[C@@H]2CC(=O)N21 [Clavulanate]
[1]; [17]
  inhibition at 10 µM: -16%
[2]; [18]
  inhibition at 10 µM: 5%
[3]; primary HTS, 10 μM
  Quadrant (FIG. 5b): Q4
Primary rat microglia [4]; [19]
  LPS % cell toxicity: 0%
Primary rat microglia [5]; [20]
  Fibrin % cell toxicity: 0%

## CCC(=O)O[C@@H](O[P@](=O)(CCCCc1ccccc1)CC(=O)N1C[C@H](C2CCCCC2)C[C@H]1C(=O)O)C(C)C [Fosinopril]
[1]; [21]
  inhibition at 10 µM: -52%
[2]; [22]
  inhibition at 10 µM: -1%
[3]; [13]
  Quadrant (FIG. 5b): Q4
Primary rat microglia [4]; [23]
  LPS % cell toxicity: 0%
Primary rat microglia [5]; [24]
  Fibrin % cell toxicity: 1%

## Nc1ccc(S(=O)(=O)Nc2ccc(Cl)nn2)cc1 [Sulfachlorpyridazine]
[1]; [6]
  inhibition at 10 µM: 18%
[2]; [7]
  inhibition at 10 µM: 14%
[3]; [8]
  Quadrant (FIG. 5b): Q4
Primary rat microglia [4]; [9]
  LPS % cell toxicity: 0%
Primary rat microglia [5]; [10]
  Fibrin % cell toxicity: 1%

## CN1C(=O)CC(C)(c2ccccc2)C1=O (centres unmarked) [Methsuximide]
[1]; [11]
  inhibition at 10 µM: -39%
[2]; [12]
  inhibition at 10 µM: 19%
[3]; [13]
  Quadrant (FIG. 5b): Q4
Primary rat microglia [4]; [14]
  LPS % cell toxicity: 0%
Primary rat microglia [5]; [15]
  Fibrin % cell toxicity: 0%

## CC1(C)S[C@@H]2[C@H](NC(=O)[C@H](C(=O)O)c3ccsc3)C(=O)N2[C@H]1C(=O)O [Ticarcillin Disodium]
[1]; [6]
  inhibition at 10 µM: -22%
[2]; [7]
  inhibition at 10 µM: 7%
[3]; [8]
  Quadrant (FIG. 5b): Q4
Primary rat microglia [4]; [9]
  LPS % cell toxicity: 0%
Primary rat microglia [5]; [10]
  Fibrin % cell toxicity: 0%

## C[C@@H]1C[C@H]2[C@@H]3CCC4=CC(=O)C=C[C@]4(C)[C@@]3(F)[C@@H](O)C[C@]2(C)[C@H]1C(=O)CO [Desoximetasone]
[1]; [11]
  inhibition at 10 µM: 101%
[2]; [12]
  inhibition at 10 µM: 91%
[3]; [13]
  Quadrant (FIG. 5b): Q2
Primary rat microglia [4]; [14]
  LPS % cell toxicity: 3%
Primary rat microglia [5]; [15]
  Fibrin % cell toxicity: 5%

## CC(=O)OCC1=C(C(=O)O)N2C(=O)[C@@H](NC(=O)CSc3ccncc3)[C@H]2SC1 [Cefapirin]
[1]; [17]
  inhibition at 10 µM: -26%
[2]; [18]
  inhibition at 10 µM: 7%
[3]; primary HTS, 10 μM
  Quadrant (FIG. 5b): Q4
Primary rat microglia [4]; [19]
  LPS % cell toxicity: 0%
Primary rat microglia [5]; [20]
  Fibrin % cell toxicity: 0%

## O=[N+]([O-])c1ccc(O)c2ncccc12 [Nitroxoline]
[1]; [11]
  inhibition at 10 µM: -5%
[2]; [12]
  inhibition at 10 µM: -6%
[3]; [13]
  Quadrant (FIG. 5b): Q4
Primary rat microglia [4]; [14]
  LPS % cell toxicity: 0%
Primary rat microglia [5]; [15]
  Fibrin % cell toxicity: 1%

## CN(C)CCOC(c1ccc(Cl)cc1)c1ccccn1 (centres unmarked) [Carbinoxamine]
[1]; [17]
  inhibition at 10 µM: 6%
[2]; [18]
  inhibition at 10 µM: -3%
[3]; primary HTS, 10 μM
  Quadrant (FIG. 5b): Q4
Primary rat microglia [4]; [19]
  LPS % cell toxicity: 0%
Primary rat microglia [5]; [20]
  Fibrin % cell toxicity: 0%

## CCCCOc1cc(C(=O)OCCN(CC)CC)ccc1N [Oxybuprocaine]
[1]; [11]
  inhibition at 10 µM: 7%
[2]; [12]
  inhibition at 10 µM: 11%
[3]; [13]
  Quadrant (FIG. 5b): Q4
Primary rat microglia [4]; [14]
  LPS % cell toxicity: 0%
Primary rat microglia [5]; [15]
  Fibrin % cell toxicity: 1%

## CC[C@H](C)C(=O)O[C@H]1CCC=C2C=C[C@H](C)[C@H](CC[C@@H]3C[C@@H](O)CC(=O)O3)[C@H]21 [Compactin, Mevastatin]
[1]; [11]
  Fibrin % inhibition: 105%
[2]; [16]
  LPS % inhibition: 89%
[3]; [13]
  Quadrant (FIG. 5b): Q2
Primary rat microglia [4]; [14]
  LPS % cell toxicity: 2%
Primary rat microglia [5]; [15]
  Fibrin % cell toxicity: 3%

## CC[C@H](c1ccc(O)cc1)[C@@H](CC)c1ccc(O)cc1 [Hexestrol]
[1]; [21]
  inhibition at 10 µM: -29%
[2]; [22]
  inhibition at 10 µM: 7%
[3]; [13]
  Quadrant (FIG. 5b): Q4
Primary rat microglia [4]; [23]
  LPS % cell toxicity: 0%
Primary rat microglia [5]; [24]
  Fibrin % cell toxicity: 1%
